From EPA's ToxValDB 9.5

System: Rattus norvegicus
Details: oral
[1] = subchronic, gavage, M, Sprague-Dawley, Body Weight Changes: decrease, Gain decrease + Food Consumption: decrease + Hematology: RBC decrease, Hgb decrease, Hct decrease, Ret …

Compound: CCC(C)=NO[Si](C)(ON=C(C)CC)ON=C(C)CC [Methyltri(2-butanoneoximyl)silane]
- NOAEL (short-term, duration: 28 days, gavage, M, Wistar, Functional Observational Battery: Rearing decrease, Grip strength(fore and hind limb) decrease, Mean body temperature decrease + Body Weight…): 10 mg/kg-day

Compound: CC(CN1CCOCC1)OCCN1CCOCC1 (stereo not drawn) [Morpholine, 4-[2-[1-methyl-2-(4-morpholinyl)ethoxy]ethyl]-]
- NOEL (short-term, duration: 28 days, gavage, M/F, Clinical Observation: Salivation Ptosis Reddish pinna Swelling of pinna + Body Weight Changes: Body weight gain decrease + Food Consumption…): < 8 mg/kg-day

Compound: CCn1cc(C(=O)O)c(=O)c2ccc(C)nc21 [Nalidixic acid]
- NOEL (subchronic, duration: 13 weeks, diet, M/F, Fischer 344, Deaths + Body Weight Changes: decrease + Food Consumption: decrease + Absolute Organ Weight: Liver increase + Relative Organ Weight: Liver …): 96 mg/kg-day

Compound: NC(=O)N/N=C/c1ccc([N+](=O)[O-])o1 [Nitrofurazone]
- NOEL (subchronic, duration: 13 weeks, diet, M/F, Fischer 344, Body Weight Changes: decrease + Food Consumption: decrease + Absolute Organ Weight: Liver increase + Relative Organ Weight: Liver increase…): < 14.4 mg/kg-day

Compound: CCCCCCCCC [Nonane]
- NOAEL (subchronic, duration: 90 days, gavage, F, Fischer 344, Absolute Organ Weight: Liver increase, Lung increase, Adrenal increase, Spleen decrease, Ovary decrease + Histopathology: Alimentary tract: …): 100 mg/kg-day

Compound: ClCCCCCCCCCl [Octane, 1,8-dichloro-]
- NOEL (short-term, duration: 28 days, gavage, M/F, Sprague-Dawley, Deaths + Clinical Observation: Salivation + Functional Observational Battery: Grip strength (forelimb) decrease, Grip strength (hindlimb) …): < 40 mg/kg-day

Compound: FC(F)(F)C1(F)C(F)(F)C(F)(F)C(F)(F)C(F)(F)C1(F)C(F)(F)F (stereo not drawn) [Perfluoro-1,2-dimethylcyclohexane]
- NOEL (subchronic, duration: 42 days, gavage, M, CD(SD), Hematology: HGB decrease, HCT decrease + Histopathology: Liver-Hypertrophy, hepatocyte, central): 300 mg/kg-day

Compound: O=C(O)C(F)(F)C(F)(F)C(F)(F)C(F)(F)C(F)(F)C(F)(F)C(F)(F)C(F)(F)C(F)(F)C(F)(F)C(F)(F)C(F)(F)C(F)(F)C(F)(F)C(F)(F)C(F)(F)C(F)(F)F [Perfluorooctadecanoic acid]
- LOEL [1]: 200 mg/kg-day
- NOEL [1]: 40 mg/kg-day

Compound: CC(CN1c2ccccc2Sc2ccccc21)N(C)C.Cl (stereo not drawn) [Promethazine hydrochloride]
- NOEL (subchronic, duration: 13 weeks, gavage, M/F, Fischer 344, Deaths + Clinical Observation: Hunched posture Labored respiration Abnormal respiratory sounds + Body Weight Changes: decrease + Absolute …): 3.7 mg/kg-day

Compound: CC(=O)/C=C/C=C(\C)CCC=C(C)C [Pseudoionone]
- NOAEL (short-term, duration: 28 days, gavage, M/F, Wistar Han, Clinical Observation: Salivation + Body Weight Changes: Weight gain decrease + Hematology: RBC increase, HCT increase, PLT increase, APTT …): 50 mg/kg-day

Compound: Br.CN1[C@@H]2CC(OC(=O)[C@H](CO)c3ccccc3)C[C@H]1[C@@H]1O[C@@H]12.O.O.O (stereo partly drawn) [Scopolamine hydrobromide trihydrate]
- NOEL (chronic, duration: 14 weeks, gavage, M/F, Fischer 344, Deaths + Clinical Observation: Pupillary dilation Reddening of eyes Hypoactivity + Body Weight Changes: decrease + Hematology: Hgb increase…): < 15 mg/kg-day

Compound: CCCCCCC[CH2][Sn]([Cl])([Cl])[Cl] [Stannane, trichlorooctyl-]
- NOAEL (subchronic, duration: 13 weeks, diet, M/F, Wistar, Blood Chemistry: ALP increase + Absolute Organ Weight: Thymus decrease + Relative Organ Weight: Thymus decrease + Histopathology: Thymus- …): 9.6 mg/kg-day
- NOAEL (subchronic, duration: 13 weeks, diet, M/F, Wistar, Body Weight Changes: Mean body weight decrease + Food Consumption: decrease + Urinalysis: SG decrease + Hematology: HGB decrease, HCT …): < 2.88 mg/kg-day

Compound: CC(C)(c1cc(Br)c(OCCO)c(Br)c1)c1cc(Br)c(OCCO)c(Br)c1 [Tetrabromobisphenol A bis(2-hydroxyethyl) ether]
- NOEL (subchronic, gavage, M, Sprague-Dawley, Clinical Observation: Soft stool R + Hematology: Plt increase + Blood Chemistry: BUN increase + Necropsy: Cecum-Distention): 40 mg/kg-day

Compound: CCCC[N+](CCCC)(CCCC)CCCC.[Br-] [Tetrabutylammonium bromide]
- NOEL (subchronic, gavage, M/F, Sprague-Dawley, Deaths + Clinical Observation: Reddish urine + Body Weight Changes: Gain decrease + Food Consumption: increase + Urinalysis: Light brown …): 60 mg/kg-day

Compound: O=C1OC(=O)c2c(Cl)c(Cl)c(Cl)c(Cl)c21 [Tetrachlorophthalic anhydride]
- NOEL (subchronic, gavage, M/F, Fischer 344, Deaths + Body Weight Changes: decrease + Blood Chemistry: gamma-GTP increase, Glu decrease + Absolute Organ Weight: Spleen decrease, Right …): < 94 mg/kg-day

Compound: c1ccc2c(c1)CCCC2 [Tetralin]
- NOAEL (short-term, duration: 28 days, gavage, M/F, Wistar, Clinical Observation: Squatting position Closed eyes Reduced activity LethargyTonic convulsion Absence of auditory startle reflex + Body …): 15 mg/kg-day

Compound: Cn1c(=O)c2[nH]cnc2n(C)c1=O [Theophylline]
- NOEL (chronic, duration: 14 weeks, diet, F, Fischer 344, Absolute Organ Weight: Right kidney increase, Lung increase + Relative Organ Weight: Right kidney increase, Lungs increase + Histopathology…): < 75 mg/kg-day
- NOEL (chronic, duration: 14 weeks, diet, M/F, Fischer 344, Absolute Organ Weight: Right kidney increase, Lung increase + Relative Organ Weight: Right kidney increase, Lungs increase + Histopathology…): < 78 mg/kg-day
- NOEL (chronic, duration: 14 weeks, gavage, M/F, Fischer 344, Deaths + Absolute Organ Weight: Liver increase, Thymus decrease + Relative Organ Weight: Right kidney increase, Liver increase, Uterus …): < 37.5 mg/kg-day

Compound: C=CCN(CC=C)CC=C [Triallylamine]
- NOEL (short-term, duration: 28 days, gavage, M/F, Sprague-Dawley, Clinical Observation: Locomotor activity decrease, Salivation + Functional Observational Battery: Hind limb grip strength decrease + Body …): 6 mg/kg-day

Compound: Nc1nc(N)c2nc(-c3ccccc3)c(N)nc2n1 [Triamterene]
- NOEL (subchronic, duration: 13 weeks, diet, M/F, Fischer 344, Deaths + Body Weight Changes: decrease + Food Consumption: decrease + Histopathology: Kidney-Tubule degeneration Kidney-Cast Kidney-Tubule …): 14.4 mg/kg-day

Compound: OCCOCCOCCO [Triethylene glycol]
- NOEL (subchronic, duration: 13 weeks, diet, M/F, Fischer 344, Body Weight Changes: Mean body weight decrease, Body weight gain decrease + Urinalysis: Urinalysis', 'Volume increase, pH decrease + …): 1920 mg/kg-day

Compound: CO[Si](C)(OC)OC [Trimethoxymethylsilane]
- NOAEL (short-term, duration: 28 days, gavage, M, Sprague-Dawley, Clinical Observation: Inactivity Salivation + Body Weight Changes: Body weight gain decrease + Food Consumption: decrease + Hematology: PT …): 50 mg/kg-day

Compound: CC(C)(C)OOC(=O)c1ccccc1 [tert-Butyl perbenzoate]
- NOEL (subchronic, gavage, M/F, Fischer 344, Deaths + Body Weight Changes: decrease + Food Consumption: decrease + Absolute Organ Weight: Spleen decrease, Forestomach increase>60 …): < 30 mg/kg-day

Compound: CC(C)(C)c1cc(O)ccc1O [tert-Butylhydroquinone]
- NOEL (subchronic, duration: 13 weeks, diet, F, Fischer 344, Clinical Observation: Hair discoloration + Body Weight Changes: decrease + Food Consumption: decrease + Blood Chemistry: Bile acid increase…): 200 mg/kg-day
- NOEL (subchronic, duration: 13 weeks, diet, M/F, Fischer 344, Clinical Observation: Hair discoloration + Body Weight Changes: decrease + Food Consumption: decrease + Blood Chemistry: Bile acid increase…): < 240 mg/kg-day
